# According to US20240287463A1, “INDUCIBLE TISSUE CONSTRUCTS AND USES THEREOF” (Massachusetts Institute of Technology, priority 2020, published 2024):
# Legend:
# [1] = system: iCasp9-GFP J2 population; assay: fibroblast removal from 2D micropatterned co-cultures (MPCC); assay type: cell-based; conditions: 50 nM CID
# Text: Specifically, MPCC were fabricated as described previously (S. R. Khetani and S. N. Bhatia (2005) Nat. Biotechnol 26, 120; S. March et al. (2015) Nat. Protoc. 10, 2007). Briefly, collagen was adsorbed in each well of a 96 well plate (glass bottom), and then patterned using an elastomeric polydimethysiloxane mold and oxygen plasma gas ablation. Human hepatocytes were thawed and seeded (70 k/well) on the collagen islands (500 μm with 1,200 μm center-to-center spacing). Adhered hepatocytes (˜10 k/well) were allowed to spread overnight before fibroblasts were seeded for co-culture (7 k/well). Supernatant was collected from cultures every other day and stored at −20° C. Human albumin was quantified using an enzyme-linked immunosorbent assay using a sheep anti-rat albumin antibody (ELISA) (Bethyl Laboratories) and 3,3′,5,5′-tetramethylbenzidine (TMB, Thermo Fisher). Urea concentration was measured using a colorimetric (diacetylmonoxime) assay with acid and heat (Stanbio Labs). CYP3A4 activity was assessed with the luminogenic P450-GloTM CYP450 assay kit (Promega) for nonlytic assays using cultured cells. Cultures were pre-treated with 2 μM rifampin or 1:1,000 DMSO vehicle control prepared in hepatocyte maintenance media for 72 hours (daily replenishment) where indicated. […]
# [2] = system: primary human hepatocytes; assay: hepatocyte function and toxicity in 3D spheroid-laden hydrogels after fibroblast deletion; assay type: cell-based
# Text: Specifically, MPCC were fabricated as described previously (S. R. Khetani and S. N. Bhatia (2005) Nat. Biotechnol 26, 120; S. March et al. (2015) Nat. Protoc. 10, 2007). Briefly, collagen was adsorbed in each well of a 96 well plate (glass bottom), and then patterned using an elastomeric polydimethysiloxane mold and oxygen plasma gas ablation. Human hepatocytes were thawed and seeded (70 k/well) on the collagen islands (500 μm with 1,200 μm center-to-center spacing). Adhered hepatocytes (˜10 k/well) were allowed to spread overnight before fibroblasts were seeded for co-culture (7 k/well). Supernatant was collected from cultures every other day and stored at −20° C. Human albumin was quantified using an enzyme-linked immunosorbent assay using a sheep anti-rat albumin antibody (ELISA) (Bethyl Laboratories) and 3,3′,5,5′-tetramethylbenzidine (TMB, Thermo Fisher). Urea concentration was measured using a colorimetric (diacetylmonoxime) assay with acid and heat (Stanbio Labs). CYP3A4 activity was assessed with the luminogenic P450-GloTM CYP450 assay kit (Promega) for nonlytic assays using cultured cells. Cultures were pre-treated with 2 μM rifampin or 1:1,000 DMSO vehicle control prepared in hepatocyte maintenance media for 72 hours (daily replenishment) where indicated.
# Previous work identified that phenotypic stability and longevity of primary hepatocytes cultured as 3D microtissues were transiently supported by pre-aggregation to increase homotypic cell-cell interactions, and were further enhanced upon inclusion of J2 fibroblasts (C. Y. Li et al. (2014) Tissue Eng. Part A 20, 2200). Thus, iCasp9-GFP J2 fibroblasts were incorporated into these 3D hepatic ensembles, which were fabricated by plating primary human hepatocytes and fibroblasts in microwells in order to facilitate physical cell-cell contacts, as previously described (K. Stevens et al. (2013) Nat. Commun. 4, 1847; K. R. Stevens et al. (2017) Sci. Transl. Med. 9, eaaah5505). Specifically, cryopreserved 365 human hepatocytes were thawed and immediately plated with fibroblasts in AggreWells (400 μm pyramidal microwells) and incubated overnight. Hepatic spheroids (about 150 hepatocytes per spheroid, ˜100 μm diameter) were imaged and analyzed to quantify the extent of spheroid compaction. Individual spheroids were isolated manually using Fiji, (J. Schindelin et al. (2012) Nat. Methods 9, 676). […] Resulting morphologies were traced and measured for circularity. […]
# To probe the dependence of hepatocyte phenotypic stability on fibroblast co-culture in 3D, fibroblasts were deleted from spheroid-laden hydrogel cultures using CAMEO after 1 day of hepatocyte-fibroblast co-culture. Fibroblasts were robustly removed from 3D co-cultures as described in the above Examples, and detected by immunofluorescence imaging (FIG. 3I). […]
# [3] = system: implanted hepatocyte tissue constructs; assay: human albumin in plasma of mice implanted with hepatocyte/iCasp9-HDF/HUVEC constructs (ELISA); assay type: in vivo; conditions: 10 mg/kg on days 5 and 6 post-implantation, plasma at day 7
# Experimental: Following the confirmation of vessel maintenance and anastomosis and ability to induce death of implanted fibroblasts in vivo, hepatocyte function was evaluated in implanted hepatocyte tissue constructs. Specifically, mice were implanted with hepatocyte/iCasp9-HDF/HUVEC tissue constructs after in vitro culture for 7 days. Constructs were implanted in mouse fat pads as described above, and treated with 10 mg/kg CID or vehicle on days 5 and 6 post-implantation. At day 7, blood was collected and centrifuged to isolate plasma.
smiles,measurement,setting,value
"CC[C@H](C(=O)N1CCCC[C@H]1C(=O)O[C@H](CCc1ccc(OC)c(OC)c1)c1cccc(OCC(=O)NCC(CNC(=O)COc2cccc([C@@H](CCc3ccc(OC)c(OC)c3)OC(=O)[C@@H]3CCCCN3C(=O)[C@@H](CC)c3cc(OC)c(OC)c(OC)c3)c2)CN(C)C)c1)c1cc(OC)c(OC)c(OC)c1 [CID, AP20187]",removal of fibroblasts from MPCC,[1],selective removal of the iCasp9-GFP J2 population
same,hepatocyte function,[2]; 50 nM CID after 3 or 7 days of co-culture,negatively impacted
same,hepatocyte phenotype by albumin secretion rate,"[2]; CID after 1 day of co-culture, followed up to 3 weeks",stable phenotype
same,"hepatocyte function, CID pre- versus post-encapsulation in fibrin",[2]; data not shown,No difference
same,toxicity to co-cultured hepatocytes,"[2]; spheroid-laden hydrogel cultures, data not shown",without any apparent toxicity
same,human albumin secretion compared to vehicle control and in vitro CID treated constructs,[3],similar
